Assay results: patent publication US9102638B2, “Amidobenzothiazoles and process for the preparation thereof” (COUNCIL OF SCIENTIFIC & INDUSTRIAL RESEARCH, priority 2011, dated 2015)

Tests used:
Format in all cases: cell-based
[1] = system: MOLT-4; assay: In vitro cytotoxicity, NCI screen: MOLT-4 (Leukemia); conditions: Homo sapiens; MOLT-4, Leukemia panel, NCI protocol; read-out: GI50 values (μM conc.)
Protocol: (§1) The in vitro anticancer activity studies for these amidobenzothiazoles were carried out at the National Cancer Institute, Maryland, USA.
(§2) The amidobenzothiazoles have been tested against sixty human tumor cell lines derived from nine cancer types (leukemia cancer cell line, non-small cell lung cancer cell line, colon cancer cell line, CNS cancer cell line, melanoma cancer cell line, ovarian cancer cell line, renal cancer cell line, prostate cancer cell line and breast cancer cell lines). For these compounds results are expressed in GI50 values of that particular cancer cell at micro molar (μM) concentration as per NCI protocol.

[2] = system: SR; assay: In vitro cytotoxicity, NCI screen: SR (Leukemia); conditions: Homo sapiens, Leukemia panel, NCI protocol, read-out: GI50 values (μM conc.)
Protocol: as §1, §2

[3] = system: HOP-92; assay: In vitro cytotoxicity, NCI screen: HOP-92 (Non-small cell lung); conditions: Homo sapiens; HOP-92, Non-small cell lung panel, NCI protocol; read-out: GI50 values (μM conc.)
Protocol: as §1, §2

[4] = system: NCI-H322M; assay: In vitro cytotoxicity, NCI screen: NCI-H322M (Non-small cell lung); conditions: Homo sapiens, Non-small cell lung panel, NCI protocol, read-out: GI50 values (μM conc.)
Protocol: as §1, §2

[5] = system: NCI-H522; assay: In vitro cytotoxicity, NCI screen: NCI-H522 (Non-small cell lung); conditions: Homo sapiens; NCI-H522, Non-small cell lung panel, NCI protocol; read-out: GI50 values (μM conc.)
Protocol: as §1, §2

[6] = system: COLO-205; assay: In vitro cytotoxicity, NCI screen: COLO-205 (Colon); conditions: Homo sapiens; COLO-205, Colon panel, NCI protocol; read-out: GI50 values (μM conc.)
Protocol: as §1, §2

[7] = system: HCT-116; assay: In vitro cytotoxicity, NCI screen: HCT-116 (Colon); conditions: Homo sapiens, read-out: GI50 values (μM conc.)
Protocol: as §1, §2

[8] = system: HT29; assay: In vitro cytotoxicity, NCI screen: HT29 (Colon); conditions: Homo sapiens, HT-29; HT29, Colon panel, NCI protocol; read-out: GI50 values (μM conc.)
Protocol: as §1, §2

[9] = system: SNB-19; assay: In vitro cytotoxicity, NCI screen: SNB-19 (CNS); conditions: Homo sapiens; SNB-19, CNS panel, NCI protocol; read-out: GI50 values (μM conc.)
Protocol: as §1, §2

[10] = system: SNB-75; assay: In vitro cytotoxicity, NCI screen: SNB-75 (CNS); conditions: Homo sapiens; SNB-75, CNS panel, NCI protocol; read-out: GI50 values (μM conc.)
Protocol: as §1, §2

[11] = system: LOX IMVI; assay: In vitro cytotoxicity, NCI screen: LOX IMVI (Melanoma); conditions: Homo sapiens, Melanoma panel, NCI protocol, read-out: GI50 values (μM conc.)
Protocol: as §1, §2

[12] = system: MDA-MB-435; assay: In vitro cytotoxicity, NCI screen: MDA-MB-435 (Melanoma); conditions: Homo sapiens; MDA-MB-435, Melanoma panel, NCI protocol; read-out: GI50 values (μM conc.)
Protocol: as §1, §2

[13] = system: SK-MEL-28; assay: In vitro cytotoxicity, NCI screen: SK-MEL-28 (Melanoma); conditions: Homo sapiens; SK-MEL-28, Melanoma panel, NCI protocol; read-out: GI50 values (μM conc.)
Protocol: as §1, §2

[14] = system: SK-MEL-5; assay: In vitro cytotoxicity, NCI screen: SK-MEL-5 (Melanoma); conditions: Homo sapiens; SK-MEL-5, Melanoma panel, NCI protocol; read-out: GI50 values (μM conc.)
Protocol: as §1, §2

[15] = system: UACC-62; assay: In vitro cytotoxicity, NCI screen: UACC-62 (Melanoma); conditions: Homo sapiens; UACC-62, Melanoma panel, NCI protocol; read-out: GI50 values (μM conc.)
Protocol: as §1, §2

[16] = system: OVCAR-3; assay: In vitro cytotoxicity, NCI screen: OVCAR-3 (Ovarian); conditions: Homo sapiens; OVCAR-3, Ovarian panel, NCI protocol; read-out: GI50 values (μM conc.)
Protocol: as §1, §2

[17] = system: OVCAR-4; assay: In vitro cytotoxicity, NCI screen: OVCAR-4 (Ovarian); conditions: Homo sapiens; OVCAR-4, Ovarian panel, NCI protocol; read-out: GI50 values (μM conc.)
Protocol: as §1, §2

[18] = system: ACHN; assay: In vitro cytotoxicity, NCI screen: ACHN (Renal); conditions: Homo sapiens, Renal panel, NCI protocol, read-out: GI50 values (μM conc.)
Protocol: as §1, §2

[19] = system: CAKI-1; assay: In vitro cytotoxicity, NCI screen: CAKI-1 (Renal); conditions: Homo sapiens; CAKI-1, Renal panel, NCI protocol; read-out: GI50 values (μM conc.)
Protocol: as §1, §2

[20] = system: RXF 393; assay: In vitro cytotoxicity, NCI screen: RXF 393 (Renal); conditions: Homo sapiens; RXF 393, Renal panel, NCI protocol; read-out: GI50 values (μM conc.)
Protocol: as §1, §2

[21] = system: SN12C; assay: In vitro cytotoxicity, NCI screen: SN12C (Renal); conditions: Homo sapiens, Renal panel, NCI protocol, read-out: GI50 values (μM conc.)
Protocol: as §1, §2

[22] = system: TK-10; assay: In vitro cytotoxicity, NCI screen: TK-10 (Renal); conditions: Homo sapiens; TK-10, Renal panel, NCI protocol; read-out: GI50 values (μM conc.)
Protocol: as §1, §2

[23] = system: UO-31; assay: In vitro cytotoxicity, NCI screen: UO-31 (Renal); conditions: Homo sapiens; UO-31, Renal panel, NCI protocol; read-out: GI50 values (μM conc.)
Protocol: as §1, §2

[24] = system: PC-3; assay: In vitro cytotoxicity, NCI screen: PC-3 (Prostate); conditions: Homo sapiens; PC-3, Prostate panel, NCI protocol; read-out: GI50 values (μM conc.)
Protocol: as §1, §2

[25] = system: DU-145; assay: In vitro cytotoxicity, NCI screen: DU-145 (Prostate); conditions: Homo sapiens, read-out: GI50 values (μM conc.)
Protocol: as §1, §2

[26] = system: MCF7; assay: In vitro cytotoxicity, NCI screen: MCF7 (Breast); conditions: Homo sapiens; MCF7, Breast panel, NCI protocol; read-out: GI50 values (μM conc.)
Protocol: as §1, §2

[27] = system: HS 578T; assay: In vitro cytotoxicity, NCI screen: HS 578T (Breast); conditions: Homo sapiens, read-out: GI50 values (μM conc.)
Protocol: as §1, §2

[28] = system: BT-549; assay: In vitro cytotoxicity, NCI screen: BT-549 (Breast); conditions: Homo sapiens, read-out: GI50 values (μM conc.)
Protocol: as §1, §2

[29] = system: MDA-MB-468; assay: In vitro cytotoxicity, NCI screen: MDA-MB-468 (Breast); conditions: Homo sapiens, read-out: GI50 values (μM conc.)
Protocol: as §1, §2

[30] = system: leukemia cancer cell lines; assay: In vitro activity against leukemia cancer cell lines (panel range); conditions: Homo sapiens, read-out: GI50 values, range over the listed compounds and the panel
Protocol: as §1, §2

Compound	GI50 [1] [µM]	GI50 [2] [µM]	GI50 [3] [µM]	GI50 [4] [µM]	GI50 [5] [µM]	GI50 [6] [µM]	GI50 [7] [µM]	GI50 [8] [µM]	GI50 [9] [µM]	GI50 [10] [µM]	GI50 [11] [µM]	GI50 [12] [µM]	GI50 [13] [µM]	GI50 [14] [µM]	GI50 [15] [µM]	GI50 [16] [µM]	GI50 [17] [µM]	GI50 [18] [µM]	GI50 [19] [µM]	GI50 [20] [µM]	other results
COc1ccc2nc(NC(=O)COc3cc(/C=C\c4cc(OC)c(OC)c(OC)c4)ccc3OC)sc2c1 [Compound 8g, N1-(6-methoxy-1,3-benzothiazol-2-yl)-2-{2-methoxy-5-[(Z)-2-(3,4,5-trimethoxyphenyl)-1-ethenyl]phenoxy}acetamide]	3.87	3.69	6.28	> 100	3.09	3.89	3.7	3.34	6.3	1.91	4.17	1.16	4.41	2.68	5.93	2.17	5.31	7.77	3.2	2.5	GI50 [21]: 5.75 µM; GI50 [22]: 7.54 µM; GI50 [23]: 4.31 µM; GI50 [24]: 4.45 µM; GI50 [25]: 2.04 µM; GI50 [26]: 2.88 µM; GI50 [27]: 4.15 µM; GI50 [28]: 21.2 µM; GI50 [29]: 2.29 µM; GI50 [30]: 0.037 to 29.9 µM
COc1ccc(/C=C\c2cc(OC)c(OC)c(OC)c2)cc1OCC(=O)Nc1nc2ccc(F)cc2s1 [Compound 8e, N1-(6-fluoro-1,3-benzothiazol-2-yl)-2-{2-methoxy-5-[(Z)-2-(3,4,5-trimethoxyphenyl)-1-ethenyl]phenoxy}acetamide]	3.07	2.19	5.73	> 100	2.92	7.78	4.48	9.63	> 100	4.39	3.23	0.33	> 100	1.76	4.05	9.99	7.3	3.33	2.78	6.29	GI50 [21]: 4.61 µM; GI50 [22]: 9.89 µM; GI50 [23]: 2.56 µM; GI50 [24]: 6.74 µM; GI50 [25]: 8.97 µM; GI50 [26]: 2.3 µM; GI50 [27]: > 100 µM; GI50 [28]: 16.7 µM; GI50 [29]: 3.68 µM; GI50 [30]: 0.037 to 29.9 µM
COc1ccc(/C=C\c2cc(OC)c(OC)c(OC)c2)cc1OCC(=O)Nc1nc2ccc(OC(F)(F)F)cc2s1 [Compound 8j, N1-(6-(trifluoromethoxy)-1,3-benzothiazol-2-yl)-2-{2-methoxy-5-[(Z)-2-(3,4,5-trimethoxyphenyl)-1-ethenyl]phenoxy}acetamide]	4.21	3.55	2.74	> 100	3.16	43.3	3.92	> 100	7.08	1.56	4.77	1.93	4.57	3.26	5.11	3.37	5.34	8.31	4.6	2.65	GI50 [21]: 6.42 µM; GI50 [22]: 18.6 µM; GI50 [23]: 4.37 µM; GI50 [24]: 5.12 µM; GI50 [25]: 4.11 µM; GI50 [26]: 2.89 µM; GI50 [27]: 4.33 µM; GI50 [28]: 10.5 µM; GI50 [29]: 2.3 µM; GI50 [30]: 0.037 to 29.9 µM
